Assay results reported in patent publication US10596169B2, “Cancer treatment with combination of plinabulin and taxane” (BeyondSpring Inc., priority 2013, dated 2020).

How the values were obtained:
[1] = Description: (§1) Female nude mice (Hsd: Athymic Nude-Foxn1^nu) between 5 and 6 weeks of age weighing approximately 20 grams were obtained from Harlan, Inc. (Madison, Wis.). MV522 is a conventional human NSC metastatic lung tumor cell line (U.S. Pat. No. 7,700,615 or 7,629,380). Animals were injected subcutaneously (SC) with approximately 1×10^7 MV522 cells harvested from tissue culture. When tumors grew to approximately 105 cubic millimeters (mm^3) in size (3 days following implantation), animals were pair-matched by tumor size into treatment and control groups; each treatment group contained eight mice. Animals were ear-tagged and followed individually throughout the experiment.
(§2) Initial doses were administered on Day 1 following pair-matching. The experiment was carried out as a tumor growth inhibition (TGI) and tumor growth delay (TGD) study. Group 1 endpoint was when tumor volume reached 1.2 cm^3 (TGI) and the treated groups endpoint was when each individual animal's tumor volume reached 1.5 cm^3 (TGD). […] To serve as negative controls, NPI-2358 vehicle and docetaxel vehicle were injected IP on a 2×WKLY×3 schedule and IV on a Q2D×3 schedule, respectively. Docetaxel was administered by intravenous (IV) injection via tail vein at 15 mg/kg once every other day for three treatments (Q2D×3) or at 25 mg/kg on a Q7D×3 schedule (every 7 day for three treatment). Docetaxel and docetaxel vehicle were administered two hours prior to NPI-2358 vehicle and NPI-2358, respectively, in Groups 7-9 and 12-14. For Groups 10, 11, 15, and 16, NPI-2358 was given two hours prior to docetaxel.
Individual and group mean weights ±SD and percent weight change were recorded twice weekly until study completion beginning Day 1. Group weights on Day 42 and weight nadir values are reported.
Animals were observed twice weekly for general moribundity and daily for mortality.

[2] = test system: MV522 human non-small cell lung tumor xenograph model; test: Example 1: MV522 xenograft, NPI-2358 single agent and with docetaxel (TGI/TGD); format: in vivo, athymic nu/nu mice
Description: In vivo evaluation of plinabulin (NPI-2358) as a single agent and in combination with docetaxel in the MV522 human non-small cell lung tumor xenograph model in athymic nu/nu mice
The objective of the example was to determine potential additive or synergistic effects of plinabulin in combination with docetaxel in the MV522 model by exploring the scheduling of the drug combination explored by administering one of the agents 2 hours after the first drug was given. Significant endpoints for this experiment included mean tumor growth inhibition (TGI) or regression, tumor growth delay (TGD) in large tumor, weight loss, and mortality.
as §1, §2
Mice were weighed and caliper tumor measurements taken. Tumor growth inhibition (TGI) values were calculated for each group containing treated animals using the formula below: […]
Animals experiencing complete tumor responses or animals experiencing technical or drug-related deaths were censored from final TGI calculations; however animals experiencing partial tumor responses were included in the final TGI calculations. […] TGI values for each treatment group are reported at study completion; these calculations are based on the final study day.
This arm of the study was ended on Day 74 at the sponsor's request. […] Upon TGD study completion, a Median Day of Sacrifice (MDS) was calculated for the control (C) and each treatment (T) group and used to determine tumor growth delay (T-C) using the following equations: MDS=Median [ΣIDS] T−C=MDSTreated−MDSControl
Where IDS (Individual Day of Sacrifice) is the day when each animal reached its tumor volume endpoint (1.5 cm^3); only animals reaching this endpoint were included in TGD calculations. Gross or net log10 cell kill for each treatment group was determined using the following equations: […]

[3] = G5: NPI-2358 3.75 mg/kg IP 2xWKLYx3

## CC(C)(C)c1[nH]cnc1/C=c1\[nH]c(=O)/c(=C/c2ccccc2)[nH]c1=O [NPI-2358]
[1]; [3]
  Final weight (Day 25) % change: +15%
  Final weight (Day 25) mean ± SD: 23 ± 1 g
  Weight nadir % change: 0%
  Weight nadir day: 1
[1]; single agent groups, Example 1, given doses and schedule
  Animal weight loss: No significant animal weight loss
[2]; [3]
  #CR (Day 25): 0/0
  #CR (TGD study): 0/0
  #LTS (long-term survivors): 0
  #PR (Day 25): 0/0
  #PR (TGD study): 0/0
  % TGI: 2%
  Final tumor volume (Day 25) mean ± SEM: 1347 ± 82 mm^3
  Log10 cell kill: 0.0
  T-C (tumor growth delay): 0
[2]; G5: NPI-2358 3.75 mg/kg IP 2xWKLYx3, endpoint 1.5 cm^3
  MDS day ± SD: 29 ± 2 days
[2]; single agent, Example 1
  Tumor volume / tumor burden compared to vehicle control: slight decrease in tumor volume
